Laboratory results reported in US20110269721A1, “METHODS OF TREATING THALASSEMIA” (TargeGen, Inc., priority 2008, published 2011).

Tests used:
[1] = test system: purified erythroid cells isolated from the spleens of normal and thalassemic mice; assay: Primary splenic erythroid cell cultures with CFSE staining (cell proliferation); assay type: cell-based, mouse; conditions: for CFSE FACS profile versus untreated cells: erythroid cells from wt mice, FIG. 2A legend, n=4 per genotype; for effect on cell proliferation of erythroid cultures (CFSE): erythroid cultures from thalassemic mice, AG490 100 uM, FIG. 2A; for total cell number as % of the initial cell numbers: 48 h in culture with Epo, with colcemid, n=4
Protocol: Spleens from […] were harvested and mechanically dissociated into single cell suspensions. Murine mononuclear cells were then isolated by centrifugation using Lympholyte-M density gradients (Cedarlane Laboratories Ltd, Westbury, N.Y.) following the manufacturer's instructions. Cells were incubated on ice for 15 minutes with a cocktail containing 10 μg each of non-erythroid FITCconjugated antibodies (GR-1, MAC1, CD4, CD8, CD11b, and CD49) (BD PharMingen). After washing, the cells were incubated for 15 minutes at 4° C. with anti-FITC microbeads (Miltenyi Biotech, Auburn, Calif.). The cell suspension was placed on a magnetic column and the eluted erythroid cells were kept for RNA extraction, protein analysis, in vitro culture with carboxy-fluorescein diacetate succinimidyl ester (CFSE; MolecularProbes, Eugene, Oreg.) staining or flow cytometric analysis. CFSE was added to the cells to give a final concentration of 1.25 uM. After 10 minutes at 37° C., further dye uptake was prevented by addition of 5 volumes of cold medium and incubated in ice for 5 minutes. The cells were then washed three times and seeded at 1×10^7 cells/ml in IMDM with 30% FBS (Hyclone, South Logan, Utah 84321), 1% deionized BSA, 100 IU/ml of penicillin, 100 ug/mL of streptomycin (Mediatech, Manassas, Va.), […] beta-thioglycerol (mTG; Sigma-Aldrich), and […] rHuEpo (10 U/ml; Amgen Mfg. Ltd. Thousand Oaks, Calif.). […] In order to visualize cell division, the cultured erythroid cells were stained with CFSE. Once the dye is inside the cell, it binds to cytoskeletal proteins and is divided equally between daughter cells. Thus, it is possible to determine if cells are dividing by monitoring the reduction of CFSE fluorescence (FIG. 2A).

[2] = test system: normal and thalassemic mice; assay: In vivo administration of Jak2 inhibitor to normal and thalassemic mice; parameters: species or system mouse
From the text: Mouse models that mimic beta-thalassemia intermedia (th3/+) and major (th3/th3) were used. (Rivella, S. et al, A novel murine model of Cooley anemia and its rescue by lentiviral mediated human beta globin gene transfer. Blood (2003) 101: 2932-2939, hereby incorporated by reference.) In th3/+ mice both the betaminor and betamajor gens have been deleted from one chromosome. Mice completely lacking adult beta-globin (th3/th3) die late in gestation. To circumvent this problem, bone marrow transplantation is conducted wherein hematopoietic fetal liver cells (HFLCs) were harvested from th3/th3 embryos at embryonic day 14.5 (E14.5) and injected into lethally irradiated syngeneic wild-type (wt) adult recipients.
Compound A, a Jak2 inhibitor, was administered to cohorts of normal and thalassemic mice of different ages. […] These observations indicate that the main role of pJak2 is to propel the erythropoietic drive.

Compound	CFSE FACS profile versus untreated cells [1]	effect on cell proliferation of erythroid cultures (CFSE) [1]	total cell number as % of the initial cell numbers ([1]; th3/+ erythroid cells) [%]	total cell number as % of the initial cell numbers ([1]; th3/th3 erythroid cells) [%]	total cell number as % of the initial cell numbers ([1]; wt erythroid cells) [%]	spleen size ([2]; 6- and 12-week old thalassemic mice, 10 and 18 days of treatment)	Hb levels ([2]; thalassemic mice, 10 and 18 days of treatment)	erythropoiesis and size of the spleen ([2]; young normal animals)
N#C/C(=C/c1ccc(O)c(O)c1)C(=O)NCc1ccccc1 [AG490]	little difference from untreated cells	blocking cell proliferation						
CN[C@H]1CCc2cc(OC)c(OC)c(OC)c2-c2ccc(OC)c(=O)cc21 [colcemid]	little difference from untreated cells		88±18	72±25	46±9			
Cc1cnc(Nc2ccc(N3CCN(C)CC3)cc2)nc1Nc1cccc(S(=O)(=O)NC(C)(C)C)c1 [compound A]		blocking cell proliferation				dramatically reduced	decreasing Hb levels	affected both erythropoiesis and the size of the spleen
